Assay results as given in the NIST ThermoML archive (doi:10.1021/je9001027).

Assays:
[1] = wn = mass fraction of the nth substance listed; settings: 101 kPa, Liquid
[2] = cn = amount concentration of the nth substance listed, in mol/dm3; settings: 101 kPa, Liquid
[3] = 101 kPa, Liquid

O [water] + C[S+](C)[O-]
[1], w2 = 0
Settings	mass density [kg/m3]	viscosity [mPa·s]
298.15 K	–	0.89
303.15 K	–	0.8003
308.15 K	983.66	0.7591
313.15 K	–	0.6214
318.15 K	–	0.5346

[Br-].[Rb+] [rubidium bromide] + O
[2]
Settings	mass density, 298.15 K [kg/m3]	mass density, 303.15 K [kg/m3]	mass density, 308.15 K [kg/m3]	viscosity, 298.15 K [mPa·s]	viscosity, 303.15 K [mPa·s]	viscosity, 318.15 K [mPa·s]
c1 = 0.01	996.69	996.08	989.87	0.893	0.8934	0.5367
c1 = 0.013	996.84	996.08	989.89	0.8935	0.8937	0.537
c1 = 0.02	997.03	996.14	989.99	0.8953	0.8943	0.5375
c1 = 0.024	–	–	990.03	–	–	0.5378
c1 = 0.025	997.28	996.17	–	0.8962	0.8946	–
c1 = 0.034	–	–	–	–	–	0.5383
c1 = 0.035	–	–	990.13	–	–	–
c1 = 0.038	997.79	996.24	–	0.8966	0.895	–

C[S+](C)[O-] [dimethyl sulfoxide] + O
[1]
Settings	mass density, 298.15 K [kg/m3]	mass density, 303.15 K [kg/m3]	mass density, 308.15 K [kg/m3]	mass density, 313.15 K [kg/m3]	mass density, 318.15 K [kg/m3]	viscosity, 298.15 K [mPa·s]	viscosity, 303.15 K [mPa·s]	viscosity, 308.15 K [mPa·s]	viscosity, 313.15 K [mPa·s]	viscosity, 318.15 K [mPa·s]
w1 = 0.2	1024.2	1019.7	1015.2	998.4	979.2	1.34	–	1.054	0.9572	0.8482
w1 = 0.4	1053.47	1052.47	1045.3	1040.12	1038.01	2.221	2.221	1.921	1.618	1.497
w1 = 0.5	1067.81	1062.43	1056.4	1048.28	1047.52	2.807	2.465	2.28	2.14	1.937
w1 = 0.6	1082.31	1081.11	1072.8	1065.21	1057.1	3.421	3.421	3.105	2.846	2.775
w1 = 0.7	1087.32	1084.92	1080.83	1075.23	1067.12	2.357	–	2.081	1.927	1.865
w1 = 1	1095.41	1090.13	1085.38	1080.58	1074.5	1.966	1.809	1.652	1.559	1.488

[Br-].[Rb+] [rubidium bromide] + C[S+](C)[O-]
[2]
Settings	mass density, 298.15 K [kg/m3]	mass density, 303.15 K [kg/m3]	mass density, 308.15 K [kg/m3]	mass density, 313.15 K [kg/m3]	mass density, 318.15 K [kg/m3]	viscosity, 298.15 K [mPa·s]	viscosity, 303.15 K [mPa·s]	viscosity, 308.15 K [mPa·s]	viscosity, 313.15 K [mPa·s]	viscosity, 318.15 K [mPa·s]
c1 = 0.011	1096.9	1092.54	1087.75	1087.75	1096.42	1.997	1.839	1.682	1.587	1.515
c1 = 0.02	1098.3	1097.71	–	1088.77	1096.52	2.019	1.861	–	1.604	1.531
c1 = 0.024	–	–	1088.77	–	–	–	–	1.701	–	–
c1 = 0.026	–	1106.91	–	–	–	–	1.877	–	–	–
c1 = 0.027	1100.1	–	1088.97	–	1096.58	2.039	–	1.712	–	1.542
c1 = 0.028	–	–	–	1089.77	–	–	–	–	1.615	–
c1 = 0.03	1100.4	1110.93	1089.97	1089.97	1096.6	2.047	1.884	1.722	1.62	1.549
c1 = 0.046	1102.5	–	–	1091.97	–	2.085	–	–	1.659	–
c1 = 0.056	–	1134.93	1091.97	–	1096.9	–	1.923	1.759	–	1.581

C[S+](C)[O-] [dimethyl sulfoxide]
[3]
Settings	mass density [kg/m3]	viscosity [mPa·s]
298.15 K	1095.41	1.966
303.15 K	1090.13	1.809
308.15 K	1085.38	1.652
313.15 K	1080.58	1.559
318.15 K	1074.5	1.488
